Measurements as given in ChEMBL document CHEMBL1156829 (Proc Natl Acad Sci U S A, 2008).

How the values were obtained:
Plasmodium falciparum [1] = assay: NOVARTIS: Inhibition of Plasmodium falciparum 3D7 (drug-susceptible) proliferation in erythrocyte-based infection assay; assay type: functional, organism-based; details: Plasmodium falciparum, 3D7
[2] = NOVARTIS: Cytotoxicity against human hepatocellular carcinoma cell line (Huh7); assay type: toxicity, cell-based, Huh-7; details: Huh7 cells (hepatocellular carcinoma cell line)
Plasmodium falciparum [3] = assay: NOVARTIS: Inhibition of Plasmodium falciparum W2 (drug-resistant) proliferation in erythrocyte-based infection assay; assay type: functional, organism-based; details: Plasmodium falciparum, W2; read-out: EC50

Row | SMILES | EC50 (Plasmodium falciparum [1]) | CC50 [2] | EC50 (Plasmodium falciparum [3])
1 | COc1ccccc1N1CCN(c2ccc(NC(=O)/C=C/c3ccc([N+](=O)[O-])cc3)cc2C(=O)NCCCN(C)C)CC1 | 290 nM | 921 nM | 121 nM
2 | CSc1nnc(CN2CCSCC2)n1C | 2030 nM | > 10000 nM | > 1250 nM
3 | CCN(Cc1ccccc1)c1ncnc2ccc(Br)cc12 | 7440 nM | 95300 nM | > 12500 nM
4 | Cc1ccccc1N1C(=O)N(c2ccccc2)C2CS(=O)(=O)CC21 (configuration not stated) | 1920 nM | > 10000 nM | > 1250 nM
5 | CCOc1ccccc1NC(=O)C1C(c2ccccc2)=C1c1ccccc1 | 1800 nM | > 10000 nM | > 1250 nM
6 | COC(=O)c1c(S(=O)(=O)NCCN(C)C)sc2c1CCN(CC(C)c1ccccc1)C2 (configuration not stated) | 1610 nM | > 10000 nM | > 1320 nM
7 | CCCn1c(SCC(=O)Nc2ccccc2Cl)nc2c1c(=O)n(C)c(=O)n2C | > 1250 nM | > 10000 nM | 1320 nM
8 | CC[n+]1c(C=Cc2ccc(C)cc2)ccc2ccccc21 | 2990 nM | 20900 nM | 2700 nM
9 | C=CCNC(=S)N1CCN(c2ccc([N+](=O)[O-])cc2)CC1 | 2370 nM | > 10000 nM | > 1250 nM
10 | Cc1cc(N2CCCCC2)nc2ccc(NC(=O)c3cncc(Br)c3)cc12 | 1360 nM | > 10000 nM | > 1250 nM
11 | c1ccc(Oc2ccc(Nc3nc4nonc4nc3Nc3ccc(Oc4ccccc4)cc3)cc2)cc1 | 1760 nM | > 10000 nM | > 1250 nM
12 | COc1ccc(NC(=O)CCCCCn2c(SCC(=O)NCC3CCCO3)nc3ccsc3c2=O)cc1 (configuration not stated) | > 725 nM | > 10000 nM | > 1320 nM
13 | Cc1ccc(OCCCCN2CCOCC2)c([N+](=O)[O-])c1 | > 564 nM | > 10000 nM | > 1290 nM
14 | O=C1/C(=C/c2ccccc2)Oc2c1ccc(O)c2CN1CCCCC1 | > 1250 nM | > 10000 nM | 1260 nM
15 | CCCCN1C=CC=C/C1=C\c1sc2ccccc2[n+]1CC | 120 nM | 1800 nM | 226 nM
16 | Cc1cc(C)c2nc(NS(=O)(=O)c3cccc(C(=O)O)c3)sc2c1 | 693 nM | > 10000 nM | 1250 nM
17 | COc1ccc2nc(C)cc(Nc3ccc(Oc4ccc(Br)c5ccccc45)c(Cl)c3)c2c1 | 1110 nM | 18300 nM | 2340 nM

Row | SMILES | EC50 (Plasmodium falciparum [1]) | CC50 [2] | EC50 (Plasmodium falciparum [3])
18 | CCOC(=O)c1sc(=S)n(-c2ccc(N(C)C)cc2)c1N | > 1190 nM | > 10000 nM | > 1270 nM
19 | CC(C(=O)NN=C1CCN(C)CC1)N(c1ccccc1)S(C)(=O)=O (configuration not stated) | > 1250 nM | > 10000 nM | 1270 nM
20 | O=[N+]([O-])c1cccc(Cl)c1N1CCN(S(=O)(=O)Cc2ccccc2)CC1 | > 1160 nM | > 10000 nM | 1300 nM
21 | CCOC(=O)c1cc(-c2ccc(Cl)cc2Cl)[nH]c1N1CCN(c2ccc(OC)cc2)CC1 | 1370 nM | > 13400 nM | > 1730 nM
22 | c1cncc(-c2nc3cc(-c4ccc5[nH]c(-c6cccnc6)nc5c4)ccc3[nH]2)c1 | 1410 nM | > 10000 nM | 1290 nM
23 | Cc1c(C(=O)N2CCN(c3ccc([N+](=O)[O-])cc3)CC2)sc2ncnc(N(C)c3ccccc3)c12 | 1650 nM | > 10000 nM | > 1250 nM
24 | O=C1Cc2c([nH]c3ccc(OCc4ccccc4)cc23)C2CC=CCC12 (configuration not stated) | 1590 nM | > 10000 nM | > 1250 nM
25 | COc1ccc(-n2cc(-c3ccc(C)cc3)nc2SCC(=O)Nc2ccc(C)cc2)cc1 | 2230 nM | > 10000 nM | > 1250 nM
26 | CCOC(=O)C(=O)N1c2ccc(C)cc2C(C)(c2ccccc2)CC1(C)C (configuration not stated) | 2130 nM | > 10000 nM | > 1250 nM
27 | CCOC(=O)c1c(NC(=O)CSc2nc3c(c(=O)n(C)c(=O)n3C)n2C(C)C)sc2c1CCCC2 | 1560 nM | > 10000 nM | > 1250 nM
28 | CCN1/C(=C/c2cccc[n+]2C)Sc2cc(NC(C)=O)ccc21 | 1400 nM | > 10000 nM | > 1250 nM
29 | COc1ccc(C2NCCc3c2[nH]c2ccccc32)cc1CSc1nc2ccccc2[nH]1 (configuration not stated) | 1750 nM | 20400 nM | 2590 nM
30 | CC(C)CNc1nc(NCCCN(C)C)ncc1C(=O)NCc1ccccc1 | 316 nM | > 10000 nM | > 1290 nM
31 | Clc1ccc2[nH]c3c(NCCC4=CCCCC4)ncnc3c2c1 | 988 nM | 15800 nM | 2000 nM
32 | CCN1/C(=C\C=C\C2=[N+](C)c3ccccc3C2(C)C)N(c2ccccc2)c2ccccc21 | 1400 nM | > 10000 nM | 1260 nM
33 | Cc1ccc(C2=NC(C(F)(F)F)(C(F)(F)F)N=C3C=CC(Cl)=CN32)cc1 | > 1210 nM | > 10000 nM | > 1300 nM
34 | COc1ccccc1CNc1ncc(C(=O)NCc2ccccc2)c(NCCc2ccccc2)n1 | 1280 nM | > 10000 nM | > 1300 nM
